# Data as given in patent US20100209378A1, “Dimethylcyclohexyl Derivatives as Malodor Neutralizers” (GIVAUDAN SA, priority 2007, published 2010).
# Key:
# [1] = Headspace GC/MS malodor reduction, allyl disulphide; conditions: 0.5 g test compound, 10 ul malodor in 1 l headspace jar, 60 minutes contact at 25° C.
# Procedure: (§1) Amines are key contributors to many household malodors. Sulfides are present in odors associated with bad breath. In order to assess the malodor reduction efficacy of the compounds of the present invention, they were evaluated for their ability to reduce hexyl amine malodor and allyl disulphide by the following method.
# (§2) A one liter glass headspace collection jar had placed inside it a 25 ml stoppered glass container which contained 0.5 g of a test compound. 10 ul of hexyl amine or allyl disulphide mercaptan as a representative malodor was injected into the headspace jar. This was left for 15 minutes at 25° C. to equilibrate. One ml/minute of the headspace was drawn for one minute through a Tenax™ headspace trap. The Tenax™ trap was removed and thermally desorbed into an Agilent 6890 GC/MS to analyze the quantity of hexyl amine and allyl disulphide mercaptan respectively in the headspace to determine the initial concentration of the hexyl amine malodor/ally disulphide mercaptan. The glass stopper was removed from the container and the test component and the malodor were left in contact for 60 minutes at 25° C. One ml/minute of the headspace was drawn for one minute through a Tenax™ trap and the amount of malodor remaining was determined as above.
# [2] = Sensory panel (LMS) reduction of synthetic axilla malodor on cotton pads; conditions: 100 ul of 1% solution of test compound on pad with 100 ul 0.1% axilla malodor; panel of 20, LMS
# Procedure: A 0.1% ethanol solution of synthetic axilla malodor was prepared and a 100 ul aliquot was placed onto cotton pads. 1% solutions of test compounds were prepared and 100 ul dosed on to the axilla treated pads. One pad was left untreated as the control. Each pad was allowed to dry for 15 minutes. The test cotton pads were randomized, and a panel of 20 was used. Each panelist was asked to check a box that represented the strength of the axilla malodor using a Labeled Magnitude Scale (LMS) (Barry G. Green, Pamela Dalton, Beverly Cowart, Greg Shaffer, Krystyna Rankin and Jennifer Higgins. Evaluating the Labeled Magnitude Scale for Measuring Sensations of Taste and Smell. Chemical Senses. Vol. 21, pp 323-334, 1996).
# The % reduction of malodor was calculated by: […]
# Composition 1 was compared with composition 2 for malodor reduction efficiency using the method described in Example 6.
# [3] = Headspace GC/MS malodor reduction, garlic oil; conditions: method of Example 4; propyl methyl disulfide and dipropyl disulfide measured as standard
# Procedure: as §2
# (§3) Evaluation of the malodor reduction potential of the compounds of the present invention on malodors of natural garlic oil and onion oil using the methodology described in Example 4 is shown in Table 2. As standard for determining the reduction of onion oil odor the amount of diallyl sulfide and diallyl disulfide were measured, and propyl methyl disulfide and dipropyl disulfide for determining the reduction of garlic oil odor.
# [4] = Headspace GC/MS malodor reduction, onion oil; conditions: method of Example 4; diallyl sulfide and diallyl disulfide measured as standard
# Procedure: as §2, §3
# [5] = Headspace GC/MS malodor reduction, hexyl amine; conditions: 0.5 g test compound, 10 ul malodor in 1 l headspace jar, 60 minutes contact at 25° C.
# Procedure: as §1, §2
SMILES,% Reduction of allyl disulphide [1],% Reduction of Axilla [2],% Reduction of garlic oil odor [3],% Reduction of onion oil odor [4],% Reduction of hexyl amine [5]
"CC(O)C(=O)OC(C)C1CCCC(C)(C)C1 (stereo not shown) [Compound A, 1-(3,3-dimethylcyclohexyl)ethyl 2-hydroxypropanoate]",81.5%,77.2%,87.7%,87.2%,80.3%
"CC(OCC(=O)O)C1CCCC(C)(C)C1 (stereo not shown) [Compound B, 2-(1-(3,3-dimethylcyclohexyl)ethoxy)acetic acid]",74.6%,67.6%,73.2%,66.3%,91.4%
"CC(OCCO)C1CCCC(C)(C)C1 (stereo not shown) [Compound C, 2-(1-(3,3-dimethylcyclohexyl)ethoxy)ethanol]",70.2%,61.4%,67.4%,78.4%,71.2%
"CC(C)=CCCC(C)CCOC(=O)C=C(C)C (stereo not shown) [citronellyl methylcrotonate, reference compound]",,53.1%,,,
